Measured values from patent publication US5541175A, “Cephalosporin antibiotics” (Lucky, Ltd., priority 1993, dated 1996).
≈ marks a conversion by molar mass, not a printed value.

Tests used:
[1] = test system: Escherichia coli TEM5 3739E; experiment: Minimum inhibitory concentration (agar 2-fold dilution); format: cell-based; details: TEM53739E, 20 h, read-out: Minimum Inhibitory Concentration
Protocol: (§1) The minimum inhibitory concentration was determined by diluting the test compounds according to 2-fold dilution, suspending them in Muller-Hinton agar medium, inoculating 2 μl of the suspension containing the test strains having 10^7 CFU (Colony Forming Unit) per 1 ml into the medium and then culturing the test strains at 37° C. for 20 hours.

[2] = test system: Staphylococcus aureus 241; experiment: as above; format: cell-based; details: Staphylococcus aureus; S. aureus 241; Muller-Hinton agar, 37° C., 20 hours; read-out: Minimum Inhibitory Concentration
Protocol: as §1

Escherichia coli 10536 = experiment: as above; format: cell-based; details: Escherichia coli; E. coli 10536; Muller-Hinton agar, 37° C., 20 hours; read-out: Minimum Inhibitory Concentration
Protocol: as §1

[3] = test system: Escherichia coli TEM7 3457E; experiment: as above; format: cell-based; details: TEM73457E, 20 h, read-out: Minimum Inhibitory Concentration
Protocol: as §1

[4] = test system: Escherichia coli TEM1 1193E; experiment: as above; format: cell-based; details: TEM11193E, 20 h, read-out: Minimum Inhibitory Concentration
Protocol: as §1

[5] = test system: Pseudomonas aeruginosa 1912E; experiment: as above; format: cell-based; details: P. aeruginosa 1912E, Muller-Hinton agar, 37° C., 20 hours, read-out: Minimum Inhibitory Concentration
Protocol: as §1

[6] = test system: Salmonella typhimurium 14028A; experiment: as above; format: cell-based; details: Salmonella enterica; S. typhimurium 14028A; Muller-Hinton agar, 37° C., 20 hours; read-out: Minimum Inhibitory Concentration
Protocol: as §1

[7] = test system: Enterobacter cloacae IND + VE 1194E; experiment: as above; format: cell-based; details: E. cloacae IND + VE 1194E, Muller-Hinton agar, 37° C., 20 hours, read-out: Minimum Inhibitory Concentration
Protocol: as §1

Escherichia coli 3190Y = experiment: as above; format: cell-based; details: E. coli 3190Y, Muller-Hinton agar, 37° C., 20 hours, read-out: Minimum Inhibitory Concentration
Protocol: as §1

Staphylococcus aureus 77 = experiment: as above; format: cell-based; details: Staphylococcus aureus; S. aureus 77; Muller-Hinton agar, 37° C., 20 hours; read-out: Minimum Inhibitory Concentration
Protocol: as §1

[8] = test system: Streptococcus faecalis 29212A; experiment: as above; format: cell-based; details: Enterococcus faecalis; S. faecalis 29212A; Muller-Hinton agar, 37° C., 20 hours; read-out: Minimum Inhibitory Concentration
Protocol: as §1

Enterobacter cloacae P99 = experiment: as above; format: cell-based; details: P99, 20 h, read-out: Minimum Inhibitory Concentration
Protocol: as §1

[9] = test system: Pseudomonas aeruginosa 10145; experiment: as above; format: cell-based; details: Pseudomonas aeruginosa; P. aeruginosa 10145; Muller-Hinton agar, 37° C., 20 hours; read-out: Minimum Inhibitory Concentration
Protocol: as §1

[10] = test system: Escherichia coli TEM9 2639E; experiment: as above; format: cell-based; details: TEM92639E, 20 h, read-out: Minimum Inhibitory Concentration
Protocol: as §1

[11] = test system: Citrobacter diversus 2046E; experiment: as above; format: cell-based; details: Citrobacter koseri; C. diversus 2046E; Muller-Hinton agar, 37° C., 20 hours; read-out: Minimum Inhibitory Concentration
Protocol: as §1

[12] = test system: Acinetobacter calcoaceticus 15473A; experiment: as above; format: cell-based; details: A. calcoaceticus 15473A, Muller-Hinton agar, 37° C., 20 hours, read-out: Minimum Inhibitory Concentration
Protocol: as §1

[13] = test system: Klebsiella aerogenes SHV-1 1976E; experiment: as above; format: cell-based; details: SHV11976E, K. aerogenes SHV-1 1976E, Muller-Hinton agar, 37° C., 20 hours
Protocol: as §1

[14] = test system: Escherichia coli TEM3 3455E; experiment: as above; format: cell-based; details: TEM33455E, 20 h, read-out: Minimum Inhibitory Concentration
Protocol: as §1

[15] = test system: Staphylococcus aureus epidermidis 887E; experiment: as above; format: cell-based; details: S. aureus epidermidis 887E, Muller-Hinton agar, 37° C., 20 hours, read-out: Minimum Inhibitory Concentration
Protocol: as §1

[16] = test system: Staphylococcus aureus 6538P; experiment: as above; format: cell-based; details: S. aureus 6538P, Muller-Hinton agar, 37° C., 20 hours, read-out: Minimum Inhibitory Concentration
Protocol: as §1

[17] = test system: Serratia marcescens 1826E; experiment: as above; format: cell-based; details: S. marcescens 1826E, Muller-Hinton agar, 37° C., 20 hours, read-out: Minimum Inhibitory Concentration
Protocol: as §1

[18] = test system: Staphylococcus aureus giorgio; experiment: as above; format: cell-based; details: S. aureus giorgio, Muller-Hinton agar, 37° C., 20 hours, read-out: Minimum Inhibitory Concentration
Protocol: as §1

Escherichia coli 851E = experiment: as above; format: cell-based; details: E. coli 851E, Muller-Hinton agar, 37° C., 20 hours
Protocol: as §1

[19] = test system: Pseudomonas aeruginosa 6065; experiment: as above; format: cell-based; details: Pseudomonas aeruginosa; P. aeruginosa 6065; Muller-Hinton agar, 37° C., 20 hours; read-out: Minimum Inhibitory Concentration
Protocol: as §1

Proteus vulgaris 6059A = experiment: as above; format: cell-based; details: P. vulgaris 6059A, Muller-Hinton agar, 37° C., 20 hours, read-out: Minimum Inhibitory Concentration
Protocol: as §1

[20] = test system: Klebsiella aerogenes K1 + 1082E; experiment: as above; format: cell-based; details: 20 h, read-out: Minimum Inhibitory Concentration
Protocol: as §1

[21] = Pharmacokinetic properties in rats (blood concentration by agar well biological assay); parameters: species or system SD rats (male); details: rat, in vivo, iv, 20 mg/kg
Protocol: The pharmacokinetic properties of the compound of the present invention were determined using SD rats (.male.) weighing 230±10 g. Specifically,the test samples were injected into femoral vein in an amount of 20 mg/kg to 4 to 5 test animals. Blood was taken from femoral vein 1, 2.5, 5, 10, 20, 40, 60, 120 and 180 minutes after administration and then subjected to a biological assay using agar well method to measure the blood concentration.

| Structure (SMILES) | MIC [1] [µg/mL] | MIC [2] [µg/mL] | MIC (Escherichia coli 10536) [µg/mL] | MIC [3] [µg/mL] | MIC [4] [µg/mL] | MIC [5] [µg/mL] | MIC [6] [µg/mL] | MIC [7] [µg/mL] | MIC (Escherichia coli 3190Y) [µg/mL] | MIC (Staphylococcus aureus 77) [µg/mL] | MIC [8] [µg/mL] | MIC (Enterobacter cloacae P99) [µg/mL] | MIC [9] [µg/mL] | MIC [10] [µg/mL] | MIC [11] [µg/mL] | MIC [12] [µg/mL] | MIC [13] [µg/mL] | MIC [14] [µg/mL] | MIC [15] [µg/mL] | MIC [16] [µg/mL] | also measured |
| --- | --- | --- | --- | --- | --- | --- | --- | --- | --- | --- | --- | --- | --- | --- | --- | --- | --- | --- | --- | --- | --- |
| Nc1nc(/C(=N/O[C@H](C(=O)O)c2ccc(O)c(O)c2)C(=O)N[C@@H]2C(=O)N3C(C(=O)[O-])=C(/C=C/C[n+]4cnc(N)c(N)c4N)CS[C@H]23)cs1 [Compound I-5a, 7-[(Z)-2-(2-aminothiazol-4-yl)-2-(α-carboxy-3,4-dihydroxybenzyloxyimino)acetamido]-3-[(E)-3-(4,5,6-triaminopyrimidinium-1-yl)-1-propen-1-yl]-3-cephem-4-carboxylate] | 0.5 (≈ 0.716 µM) | 128 (≈ 183 µM) | 0.016 (≈ 0.0229 µM) | 0.031 (≈ 0.0444 µM) | 0.063 (≈ 0.0902 µM) | 0.5 (≈ 0.716 µM) | 0.03 (≈ 0.0429 µM) | 1 | 0.063 (≈ 0.0902 µM) | 2 (≈ 2.86 µM) | 4 (≈ 5.72 µM) | 8 (≈ 11.4 µM) | 0.25 (≈ 0.358 µM) | 1 (≈ 1.43 µM) | 0.13 (≈ 0.186 µM) | 0.5 (≈ 0.716 µM) | 0.5 (≈ 0.716 µM) | 0.063 (≈ 0.0902 µM) | 64 (≈ 91.6 µM) | 0.5 (≈ 0.716 µM) | MIC [17]: 0.5 µg/mL (≈ 0.716 µM); MIC [18]: 0.25 µg/mL (≈ 0.358 µM); MIC (Escherichia coli 851E): 0.063 µg/mL (≈ 0.0902 µM); MIC [19]: 4 µg/mL (≈ 5.72 µM); MIC (Proteus vulgaris 6059A): 0.063 µg/mL (≈ 0.0902 µM); MIC [20]: 0.063 µg/mL (≈ 0.0902 µM); AUC [21]: 49600 ng·h/mL; half-life [21]: 41 min |
| Cc1c(N)nc[n+](C/C=C/C2=C(C(=O)[O-])N3C(=O)[C@@H](NC(=O)/C(=N\O[C@H](C(=O)O)c4ccc(O)c(O)c4)c4csc(N)n4)[C@H]3SC2)c1N [Compound I-4a, 7-[(Z)-2-(2-aminothiazol-4-yl)-2-(α-carboxy-3,4-dihydroxybenzyloxyimino)acetamido]-3-[(E)-3-(4,6-diamino-5-methylpyrimidinium-1-yl)-1-propen-1-yl]-3-cephem-4-carboxylate] | 2 (≈ 2.87 µM) | 64 (≈ 91.7 µM) | 0.008 (≈ 0.0115 µM) | 0.25 (≈ 0.358 µM) | 0.063 (≈ 0.0903 µM) | 4 (≈ 5.73 µM) | 0.016 (≈ 0.0229 µM) | 2 | 0.063 (≈ 0.0903 µM) | 2 (≈ 2.87 µM) | 4 (≈ 5.73 µM) | 8 (≈ 11.5 µM) | 0.5 (≈ 0.717 µM) | 2 (≈ 2.87 µM) | 0.13 (≈ 0.186 µM) | 0.5 (≈ 0.717 µM) | 0.13 (≈ 0.186 µM) | 0.25 (≈ 0.358 µM) | 16 (≈ 22.9 µM) | 0.5 (≈ 0.717 µM) | MIC [17]: 0.25 µg/mL (≈ 0.358 µM); MIC [18]: 0.25 µg/mL (≈ 0.358 µM); MIC (Escherichia coli 851E): 0.063 µg/mL (≈ 0.0903 µM); MIC [19]: 1 µg/mL (≈ 1.43 µM); MIC (Proteus vulgaris 6059A): 0.063 µg/mL (≈ 0.0903 µM); MIC [20]: 0.063 µg/mL (≈ 0.0903 µM); AUC [21]: 53100 ng·h/mL; half-life [21]: 53 min |
